Values after ≈ are worked out from the molar mass of the structure shown. Like-named read-outs stand apart in the source and are kept apart here.
What was measured:
HO-1 = assay: Nrf2 target gene induction, HO-1 mRNA (qPCR); type: cell-based, human; conditions: MDA-MB-435 cells, 250 nM; fold induction above DMSO control
Procedure: (§1) FIGS. 17-20. Induction of HO-1. MDA-MB-435 human melanoma cells were treated with vehicle (DMSO) or the indicated compounds and concentrations for 16 hours. HO-1 mRNA levels were quantified using qPCR and were normalized relative to a DMSO-treated sample run in parallel. Values are averages of duplicate wells.
as §1, with “FIG. 21.” for “FIGS. 17-20.”, “HO-1, TrxR1 and γ-GCS.” for “HO-1.”, “HO-1, thioredoxin reductase-1 (TrxR1), and γ-glutamylcysteine synthetase (γ-GCS)” for “HO-1”
as §1, with “Nrf2 target gene induction.” for “FIGS. 17-20. Induction of HO-1.”, “HO-1, thioredoxin reductase-1 (TrxR1), γ-glutamylcysteine synthetase (γ-GCS), and ferritin heavy chain” for “HO-1”, “wells. Primer sequences are as follows.” for “wells.”

[1] = tested on: thioredoxin reductase-1 (TrxR1); assay: Nrf2 target gene induction, TrxR1 mRNA (qPCR); type: cell-based, human; conditions: MDA-MB-435 cells, 16 hours
Procedure: as §1, with “FIG. 21.” for “FIGS. 17-20.”, “HO-1, TrxR1 and γ-GCS.” for “HO-1.”, “HO-1, thioredoxin reductase-1 (TrxR1), and γ-glutamylcysteine synthetase (γ-GCS)” for “HO-1”
as §1, with “FIG. 22.” for “FIGS. 17-20.”, “TrxR1.” for “HO-1.”, “Thioredoxin reductase-1 (TrxR1)” for “HO-1”, “wells. Compounds 401, 402-19 and 402-53 are comparison compounds (see Example 1).” for “wells.”
as §1, with “Nrf2 target gene induction.” for “FIGS. 17-20. Induction of HO-1.”, “HO-1, thioredoxin reductase-1 (TrxR1), γ-glutamylcysteine synthetase (γ-GCS), and ferritin heavy chain” for “HO-1”, “wells. Primer sequences are as follows.” for “wells.”

[2] = tested on: γ-glutamylcysteine synthetase (γ-GCS); assay: Nrf2 target gene induction, γ-GCS mRNA (qPCR); type: cell-based, human; conditions: MDA-MB-435 cells
Procedure: as §1, with “FIG. 21.” for “FIGS. 17-20.”, “HO-1, TrxR1 and γ-GCS.” for “HO-1.”, “HO-1, thioredoxin reductase-1 (TrxR1), and γ-glutamylcysteine synthetase (γ-GCS)” for “HO-1”
as §1, with “FIG. 23.” for “FIGS. 17-20.”, “γ-GCS.” for “HO-1.”, “γ-glutamylcysteine synthetase (γ-GCS)” for “HO-1”
as §1, with “Nrf2 target gene induction.” for “FIGS. 17-20. Induction of HO-1.”, “HO-1, thioredoxin reductase-1 (TrxR1), γ-glutamylcysteine synthetase (γ-GCS), and ferritin heavy chain” for “HO-1”, “wells. Primer sequences are as follows.” for “wells.”

NQO1 = assay: Nrf2 target gene induction, NQO1; type: cell-based, human; conditions: MDA-MB-435 cells, 250 nM; fold induction above DMSO control
[3] = CNS and lung tissue concentrations after oral dosing in rats; type: in vivo; conditions: both sexes, Sprague Dawley, rat, SD rats, oral gavage, day 15, 3 h post-dose
Procedure: To examine tissue concentrations following oral dosing, 5 male and 5 female Sprague Dawley (SD) rats were administered 404-02 at 1, 10, 50 or 150 mg/kg/day via oral gavage. Doses were prepared in sesame oil and individualized to body weight on the day of dosing. Animals were sacrificed 3 hours post-dose on day 15 of study following harvest of brain and lung specimens. Each sample collected was rinsed in 1× isotonic phosphate buffered saline and blotted dry before weighing. Tissue slices were transferred to cryovials and stored at −80° C. until processing and LC-MS/MS analysis. Standard curves were derived for 404-02 in these tissues.

[4] = Aqueous solubility determination (Multiscreen solubility filter plate, UV/vis); type: physicochemical; conditions: universal aqueous buffer, pH 7.4, aqueous buffer, kinetic from dmso stock, universal aqueous buffer pH 7.4, 90 min, room temperature
Procedure: Aqueous Solubility Determination. The following procedure was used to obtain the aqueous solubility results summarized in Example 8. Step 1. Determination of optimal UV/vis wavelengths and generation of standard curves for a compound of interest: • (1) For eight standard calibration curves (one plate), prepare 34 mL of 50:50 (v:v) universal buffer:acetonitrile in a 50 mL tube. • (2) Using a multichannel pipet, dispense (in μL) the buffer:acetonitrile in a deep well plate as follows:
• (6) Cover plate with lid and shake (200-300 rpm) at room temperature for 20 minutes. • (7) Mix all wells by pipetting up and down 10 times. • (8) Transfer 120 μL from each well to a UV transparent plate. Cover and shake for 3-5 minutes. Remove any bubbles in the wells using a pipet. • (9) Read from 220 nm to 500 nm at 10 nm increments on a spectrophotometer (e.g., SpectraMax®).
Step 2. Compound Solubility Testing Procedures Using the Millipore™ Multiscreen® Solubility Filter Plate.
Universal Aqueous Buffer: • (a) To prepare 500 mL of universal buffer, add the following: 250 mL Nanopure water; 1.36 mL (45 mM) ethanolamine; 3.08 g (45 mM) potassium dihydrogen phosphate; 2.21 g (45 mM) potassium acetate; thoroughly mix. • (b) Adjust pH to 7.4 with HCl and q.s. to 500 mL with 0.15 M KCl. • (c) Filter to remove particulates and reduce bacterial growth. • (d) Store at 4° C. in the dark.
Solubility Protocol: • (a) Add 285 μL of Universal Aqueous Buffer to desired wells of the Millipore™ Multiscreen® Solubility filter plate. • (b) Add 15 μL of 10 mM compound in DMSO to the appropriate wells. Add 15 μL of 100% DMSO only to 6 wells of the filter plate for blanks. • (c) Using a multichannel pipet, mix wells by pipetting up and down 10 times. Be careful not to touch the filters in the plate with the tips. • (d) Cover and gently shake (200-300 rpm) filter plate for 90 minutes at room temperature. • (e) Vacuum filter the aqueous solution from the Multiscreen® solubility filter plate into a polypropylene V-bottom plate. • (f) Transfer 60 μL of filtrate to a UV transparent plate (Greiner® UV-Star Analysis Plate). • (g) Add 60 μL of acetonitrile to each well and mix by pipetting up and down 10 times. • (h) Cover and gently shake for 3-5 minutes. Remove any bubbles with a pipet. • (i) Measure the absorbance of each well in the plate on the spectrophotometer (UV/vis) at the desired wavelength. For compounds in a plate with different absorbance peaks, set the spectrophotometer to read a spectrum (e.g., from 220 nm to 460 nm). • (j) Identify concentration using measured absorbance for each compound and the predetermined standard curve (see Step 1).

mice = conditions: sesame oil, N=4

## CC1(C)CC[C@]2(C(=O)NCC(F)(F)F)CC[C@]3(C)[C@H](C(=O)C[C@@H]4[C@@]5(C)C=C(C#N)C(=O)C(C)(C)[C@@H]5CC[C@]43C)[C@@H]2C1 [Compound 63102, (4aS,6aR,6bR,8aR,12aR,12bR,14aR,14bS)-11-cyano-2,2,6a,6b,9,9,12a-heptamethyl-10,14-dioxo-N-(2,2,2-trifluoroethyl)-1,2,3,4,4a,5,6,6a,6b,7,8,8a,9,10,12a,12b,13,14,14a,14b-icosahydropicene-4a-carboxamide]
HO-1
  HO-1 induction: 3 fold
[1]
  TrxR1 mRNA induction: concentration needed compared with unsaturated counterpart (402, 404): higher concentrations
[2]; 250 nM, fold induction above DMSO control
  γ-GCS induction: 4.5 fold
[2]; 16 hours
  γ-GCS mRNA induction: concentration needed compared with unsaturated counterpart (402, 404): higher concentrations
NQO1
  NQO1 induction: 2 fold
[3]; brain (CNS tissue), 1 mg/kg/day, read-out: Mean 404-02 CNS Tissue Concentration (nM) ± SEM
  concentration at 3 h: 51 ± 11.8 nM
[3]; brain (CNS tissue), 1 mg/kg/day, read-out: Mean 404-02 CNS Tissue Content (ng/g = ng/mL) ± SEM
  concentration at 3 h: 29 ± 6.8 ng/g
[3]; brain (CNS tissue), 10 mg/kg/day, read-out: Mean 404-02 CNS Tissue Concentration (nM) ± SEM
  concentration at 3 h: 733 ± 173 nM
[3]; brain (CNS tissue), 10 mg/kg/day, read-out: Mean 404-02 CNS Tissue Content (ng/g = ng/mL) ± SEM
  concentration at 3 h: 421 ± 99 ng/g
[3]; brain (CNS tissue), 50 mg/kg/day, read-out: Mean 404-02 CNS Tissue Concentration (nM) ± SEM
  concentration at 3 h: 1310 ± 188 nM
[3]; brain (CNS tissue), 50 mg/kg/day, read-out: Mean 404-02 CNS Tissue Content (ng/g = ng/mL) ± SEM
  concentration at 3 h: 750 ± 108 ng/g
[3]; brain (CNS tissue), 150 mg/kg/day, read-out: Mean 404-02 CNS Tissue Concentration (nM) ± SEM
  concentration at 3 h: 1110 ± 143 nM
[3]; brain (CNS tissue), 150 mg/kg/day, read-out: Mean 404-02 CNS Tissue Content (ng/g = ng/mL) ± SEM
  concentration at 3 h: 640 ± 82 ng/g
[3]; lung, 1 mg/kg/day, read-out: Mean dh404 Lung Tissue Concentration (nM) ± SEM
  concentration at 3 h: 972 ± 215 nM
[3]; lung, 1 mg/kg/day, read-out: Mean dh404 Lung Tissue Content (ng/g = ng/mL) ± SEM
  concentration at 3 h: 558 ± 123 ng/g
[3]; lung, 10 mg/kg/day, read-out: Mean dh404 Lung Tissue Concentration (nM) ± SEM
  concentration at 3 h: 7020 ± 1620 nM
[3]; lung, 10 mg/kg/day, read-out: Mean dh404 Lung Tissue Content (ng/g = ng/mL) ± SEM
  concentration at 3 h: 4030 ± 928 ng/g
[3]; lung, 50 mg/kg/day, read-out: Mean dh404 Lung Tissue Concentration (nM) ± SEM
  concentration at 3 h: 12500 ± 2130 nM
[3]; lung, 50 mg/kg/day, read-out: Mean dh404 Lung Tissue Content (ng/g = ng/mL) ± SEM
  concentration at 3 h: 7160 ± 1220 ng/g
[3]; lung, 150 mg/kg/day, read-out: Mean dh404 Lung Tissue Concentration (nM) ± SEM
  concentration at 3 h: 16900 ± 2860 nM
[3]; lung, 150 mg/kg/day, read-out: Mean dh404 Lung Tissue Content (ng/g = ng/mL) ± SEM
  concentration at 3 h: 9720 ± 1640 ng/g
[4]
  solubility at 90 min: 0.06 µM (≈ 0.0345 µg/mL)
mice; oral gavage QDx14, 10 mg/kg
  Number of Deaths: 0
mice; oral gavage QDx14, 50 mg/kg
  Number of Deaths: 0
mice; oral gavage QDx14, 100 mg/kg
  Number of Deaths: 0
mice; oral gavage QDx14, 250 mg/kg
  Number of Deaths: 0
